“And” between values parts separate entries of the source, which are not always exact repeats. Identical values can stand only once. Like-named read-outs stand apart in the source and are kept apart here.
Tests used:
HIV-1 protease [1] = target: T1, HIV-1 protease (Human immunodeficiency virus type 1 group M subtype B, UniProt P04585); experiment: biochemical
Method: (§1) The HIV protease screening assay is based on fluorescently labeled substrate which can be resolved from nonlabeled cleavage product using special beads coated with streptavidin. The substrate is biotinylated at the amino terminal arginine and fluorescently labeled with fluorescein isothiocynate (FITC) at the carboxyl terminal lysine. This assay has been employed to detect novel, nonpeptidic inhibitors of HIV-1 protease. Substrate (20 μM of 0.2 μM), sample (10 μl of desired concentraion), and enzyme (10 μl of 0.1 μM) are added to a 96 well pandex plate. The assay is run in 0.1 M sodium acetate buffer at pH 5.5 in the presence of 1.0 M sodium chloride and 0.05% NP-40 with incubated in the dark for one hour at room temperature. Strepavidin coated polystyrene beads {40 μl of 0.1% (w/v)} are added and the plate is incubated in the dark for an additional half hour. The labeled cleavage product is separated from the unreacted substrate via filtration and is read on the Idexx screen machine. The data are analyzed by appropriate computer algorithms to ascertain percent inhibition values.

HIV-1 protease [2] = target: T1, HIV-1 protease; experiment: biochemical; settings: read-out: HIV Protease FITC Assay Ki
Method: as §1, with “This assay has been employed to detect novel, nonpeptidic inhibitors of HIV-1 protease.” left out
Determination of Ki values utilizes the same materials and equipment employed for percent inhibition studies. Two-fold serial dilutions are made for a given inhibitor from 2, 3 or 4 starting concentrations with a total of 24, 36 or 48 individual inhibitor concentrations. These dilutions are performed utilizing the BioMek robotics system. The assay consists of 10 μL of 40 nM HIV-1 protease, 10 μL of the various inhibitor concentrations, and 20 μL of 200 μM substrate (40 μL total). The reaction is allowed to proceed for 90 min at room temperature, terminated with 40 μL of avidin beads and processed (supra vide). An inhibitor with a known K; is run in parallel to verify the validity of the assay. The data is processed utilizing a computer program employing a nonlinear least square analysis of the data to generate the Ki values.

[3] = Table II, enzyme HIV-1, DOSE 0.123 (unit not given)
[4] = Table II, enzyme HIV-1, DOSE 0.370 (unit not given)
[5] = Table II, enzyme HIV-1, DOSE 1.100 (unit not given)
[6] = Table II, enzyme HIV-1, DOSE 3.300 (unit not given)
[7] = Table II, enzyme HIV-1, DOSE 10.000 (unit not given)
[8] = Table II, enzyme HIV-1, DOSE 30.000 (unit not given)
[9] = Table I, Dose 0.123 μM, read-out: Protease % Inhib
[10] = Table I, Dose 0.370 μM, read-out: Protease % Inhib
[11] = Table I, Dose 1.100 μM, read-out: Protease % Inhib
[12] = Table I, Dose 3.300 μM, read-out: Protease % Inhib
[13] = Table I, Dose 10.000 μM, read-out: Protease % Inhib
[14] = Table I, Dose 30.000 μM, read-out: Protease % Inhib

Structure (SMILES)	inhibition at 0.123 µM (HIV-1 protease [1]; [9])	inhibition at 0.37 µM (HIV-1 protease [1]; [10])	inhibition at 1.1 µM (HIV-1 protease [1]; [11])	inhibition at 3.3 µM (HIV-1 protease [1]; [12])	inhibition at 10 µM (HIV-1 protease [1]; [13])	inhibition at 30 µM (HIV-1 protease [1]; [14])	also measured
CCC(C1=C(O)CC(CC(C)C)(CC(C)C)OC1=O)c1cccc(NS(=O)(=O)c2ccc(C#N)cn2)c1 (racemic) [Example 304, 5-Cyano-N-[3-(1-[5,6-dihydro-6,6-diisobutyl-4-hydroxy-2-oxo-2H-pyran-3-yl]propyl)phenyl]-2-pyridinesulfonamide]							PROTEASE % INHIB. (HIV-1 protease [1]; [3]): 92.01%; PROTEASE % INHIB. (HIV-1 protease [1]; [4]): 93.28%; PROTEASE % INHIB. (HIV-1 protease [1]; [5]): 96.47%; PROTEASE % INHIB. (HIV-1 protease [1]; [6]): 100.47%; PROTEASE % INHIB. (HIV-1 protease [1]; [7]): 107.61%; PROTEASE % INHIB. (HIV-1 protease [1]; [8]): 79.68%
CC[C@H](Cc1ccccc1)c1cc(O)c(C(c2cccc(NS(=O)(=O)c3ccc(C#N)cc3)c2)C2CC2)c(=O)o1 (single isomer, unassigned) [Example 149, N-(3-(R or S)-{Cyclopropyl-[6-(1-(R)-ethylphenethyl)-4-hydroxy-2-oxo-2H-pyran-3-yl]-methyl}-phenyl)-4-cyanobenzenesulfonamide]							PROTEASE % INHIB. (HIV-1 protease [1]; Table I, Dose 0.123 μM): 80.51%; PROTEASE % INHIB. (HIV-1 protease [1]; Table I, Dose 0.370 μM): 87.52%; PROTEASE % INHIB. (HIV-1 protease [1]; Table I, Dose 1.100 μM): 96.32%; PROTEASE % INHIB. (HIV-1 protease [1]; Table I, Dose 3.300 μM): 92.86%; PROTEASE % INHIB. (HIV-1 protease [1]; Table I, Dose 10.000 μM): 97.12%; PROTEASE % INHIB. (HIV-1 protease [1]; Table I, Dose 30.000 μM): 95.99%
Cn1cnc(S(=O)(=O)Nc2cccc(C(c3c(O)cc(C(CC4CC4)CC4CC4)oc3=O)C3CC3)c2)c1 (stereo not shown) [98 First Compound]							Ki (HIV-1 protease [2]): 740 pM and 800 pM
CCCCCC1(CCCCC)CC(O)=C(C(CC)c2cccc(NS(=O)(=O)c3cn(C)cn3)c2)C(=O)O1 (stereo not shown) [Example 63, N-[3-[1-(4-Hydroxy-2-oxo-6,6-dipentyl-5,6-dihydro-2H-pyran-3-yl)-propyl]-phenyl]-1-methyl-1H-imidazole-4-sulfonamide]							inhibition at 0.123 µM (HIV-1 protease [1]; read-out: Protease % Inhib): 68.9%; inhibition at 0.37 µM (HIV-1 protease [1]; read-out: Protease % Inhib): 79.6%; inhibition at 1.1 µM (HIV-1 protease [1]; read-out: Protease % Inhib): 88.6%; inhibition at 3.3 µM (HIV-1 protease [1]; read-out: Protease % Inhib): 87.4%; inhibition at 10 µM (HIV-1 protease [1]; read-out: Protease % Inhib): 83.6%; inhibition at 30 µM (HIV-1 protease [1]; read-out: Protease % Inhib): 78.8%
CCCCCC1(CCCCC)CC(O)=C(C(CC)c2cccc(NS(=O)(=O)c3ccc(C#N)cc3)c2)C(=O)O1 (stereo not shown) [Example 64, 4-Cyano-N-[3-[1-(4-Hydroxy-2-oxo-6,6-dipentyl-5,6-dihydro-2H-pyran-3-yl)-propyl]-phenyl]-benzenesulfonamide]	27.9%	50.8%	75.6%	80.9%	82%	84.4%	
N#Cc1ccc(S(=O)(=O)Nc2cccc(C(c3c(O)cc(C(CC4CC4)CC4CC4)oc3=O)C3CC3)c2)cc1 (stereo not shown) [Example 95, 4-Cyano-N-(3-{cyclopropyl-[6-(2-cyclopropyl-1-cyclopropylmethyl-ethyl)-4-hydroxy-2-oxo-2H-pyran-3-yl]-methyl}-phenyl)-benzenesulfonamide]	91.2%	102%	106%	113%	110%	113%	
O=c1oc(C(CC2CC2)CC2CC2)cc(O)c1C(c1cccc(NS(=O)(=O)c2cccc3cccnc23)c1)C1CC1 (stereo not shown) [Example 96, N-(3-{Cyclopropyl-[6-(2-cyclopropyl-1-cyclopropylmethyl-ethyl)-4-hydroxy-2-oxo-2H-pyran-3-yl]-methyl}-phenyl)-8-quinolinesulfonamide]	94.2%	119%	122%	111%	111%	109%	
COCCOCCCc1cc(O)c(C(c2cccc(NS(=O)(=O)c3cn(C)cn3)c2)C2CC2)c(=O)o1 (stereo not shown) [Example 104, N-(3-{Cyclopropyl-[4-hydroxy-6-(3-{2-methoxy-ethoxy}-propyl)-2-oxo-2H-pyran-3-yl]-methyl}-phenyl)-1-methyl-1H-imidazole-4-sulfonamide]	< 10%	61.7%	81.8%	93.3%	96.4%	109%	
CCC(CCOCCOC)c1cc(O)c(C(c2cccc(NS(=O)(=O)c3cn(C)cn3)c2)C2CC2)c(=O)o1 (stereo not shown) [Example 105, N-(3-{Cyclopropyl-[6-(1-ethyl-3-{2-methoxy-ethoxy}-propyl)-4-hydroxy-2-oxo-2H-pyran-3-yl]-methyl}-phenyl)-1-methyl-1H-imidazole-4-sulfonamide]	101%	115%	107%	111%	111%	111%	
CCC(CCN=[N+]=[N-])c1cc(O)c(C(c2cccc(NS(=O)(=O)c3cn(C)cn3)c2)C2CC2)c(=O)o1 (stereo not shown) [Example 109, N-(3-{[6-(3-Azido-1-ethyl-propyl)-4-hydroxy-2-oxo-2H-pyran-3-yl]-cyclopropyl-methyl}-phenyl)-1-methyl-1H-imidazole-4-sulfonamide]	105%	99.3%	104%	101%	109%	109%	
CCC(CC1CCOCC1)c1cc(O)c(C(c2cccc(NS(=O)(=O)c3cn(C)cn3)c2)C2CC2)c(=O)o1 (stereo not shown) [Example 135, N-(3-{Cyclopropyl-[6-(1-(tetrahydropyran-4-ylmethyl)-propyl)-4-hydroxy-2-oxo-2H-pyran-3-yl]-methyl}-phenyl)-1-methyl-1H-imidazole-4-sulfonamide]	33.2%	84.5%	99.1%	96.9%	101%		inhibition at 30.9 µM (HIV-1 protease [1]; read-out: Protease % Inhib): 102%
CN(c1cccc(C(c2c(O)c3c(oc2=O)CCCCCC3)C2CC2)c1)S(=O)(=O)c1ccccc1 (stereo not shown) [Example 194, N-methyl-N-[3-[cyclopropyl(5,6,7,8,9,10-hexahydro-4-hydroxy-2-oxo-2H-cycloocta[b]pyran-3-yl)methyl]phenyl]-benzenesulfonamide]	< 10%	20%	53.9%	75.2%	85.5%	85.2%	
CCCC1(CCc2ccc(F)cc2)CC(O)=C(C(c2cccc(NS(=O)(=O)c3ccc(C#N)cn3)c2)C(C)(C)C)C(=O)O1 (stereo not shown) [Example 253, N-[3-{1-(4-Hydroxy-5,6-dihydro-2-oxo-6-(2-(4-fluorophenyl)ethyl)-6-propyl-2H-pyran-3-yl)-2,2-dimethylpropyl}phenyl]-5-cyanopyridine-2-sulfonamide]	94%	96.8%	97.6%	95.9%	97%	98.5%	
CCCC1(CCC)CC(O)=C(C(CC)c2cccc(NS(=O)(=O)c3ccc(C#N)cn3)c2)C(=O)O1 (stereo not shown) [Example 262]	91.8%	96.6%	97.1%	95.4%	94.2%	89.2%	
CCCC1(CCc2ccccc2)CC(O)=C(C(CC)c2cccc(NS(=O)(=O)c3ccc(C#N)cn3)c2)C(=O)O1 (stereo not shown) [Example 263, N-[3-{1-(4-Hydroxy-5,6-dihydro-2-oxo-6-phenethyl-6-propyl-2H-pyran-3-yl)propyl}phenyl]-5-cyanopyridine-2-sulfonamide]							inhibition at 0.123 µM (HIV-1 protease [1]; read-out: Protease % Inhib): 98.1%; inhibition at 0.37 µM (HIV-1 protease [1]; read-out: Protease % Inhib): 99%; inhibition at 1.1 µM (HIV-1 protease [1]; read-out: Protease % Inhib): 99.1%; inhibition at 3.3 µM (HIV-1 protease [1]; read-out: Protease % Inhib): 98.1%; inhibition at 10 µM (HIV-1 protease [1]; read-out: Protease % Inhib): 96.2%; inhibition at 30 µM (HIV-1 protease [1]; read-out: Protease % Inhib): 88.2%
CCCC1(CCc2ccccc2)CC(O)=C(C(c2cccc(NS(=O)(=O)c3ccc(C#N)cn3)c2)C2CC2)C(=O)O1 (stereo not shown) [Example 311]							PROTEASE % INHIB. (HIV-1 protease [1]; [3]): 86.51%; PROTEASE % INHIB. (HIV-1 protease [1]; [4]): 91.49%; PROTEASE % INHIB. (HIV-1 protease [1]; [5]): 101.8%; PROTEASE % INHIB. (HIV-1 protease [1]; [6]): 96.5%; PROTEASE % INHIB. (HIV-1 protease [1]; [7]): 93.77%; PROTEASE % INHIB. (HIV-1 protease [1]; [8]): 77.63%

Reference: patent US6169181A, “Compounds useful to treat retroviral infections” (Pharmacia & Upjohn Company, priority 1998, dated 2001)
